Experimental data reported in patent US20040163143A1, “Method for efficiently producing transgenic plant using auxin precursor” (NIPPON PAPER INDUSTRIES CO., LTD., priority 2002, published 2004).

What was measured:
[1] = test system: E. globulus hypocotyl sections; experiment: E. globulus gene introduction test, vector pIPT10 (ipt only + GUS), adventitious bud redifferentiation and GUS staining; assay type: cell-based, Eucalyptus globulus; settings: for B/A Redifferentiation ratio / C/A Gene introduction ratio / C/B Selection efficiency: section basis
Procedure: Seeds of E. globulus from Chile were sterilized by soaking in 70% ethanol for about 1 minute and then soaking with stirring in a 2% aqueous sodium hypochlorite solution for about 4 hours, washed thoroughly with sterile water, inoculated on an MS agar medium to which 0.5 mg/l zeatin had been added and stored in a refrigerator at 4° C. for 2 days to accelerate germination, and then the germination was carried out by culturing at 25° C. under light conditions of about 10 μmol/m^2/s in light intensity. One to two weeks after the inoculation of the seeds onto the germination medium, hypocotyls were collected by cutting out apical buds, cotyledons and roots of the germinated seedlings, and the hypocotyls were cut into sections of about 5 mm to be used as samples for gene introduction and subjected to the following test. A. tumefaciens EHA105 introduced with the plasmid pIAH6 in the above item I was cultured overnight in the YEB liquid medium and then diluted to OD630 =0.5 with EG basal medium, and the sections of hypocotyl prepared in the above were soaked in the cell suspension. Next, each of the sections after removing excess cell suspension was co-cultured with Agrobacterium on an agar medium (agar 8.5 g/l) prepared by adding 1.0 mg/l zeatin, 0.05 mg/l NAA and 40 mg/l acetosyringone to the EG basal medium, at 25° C. for 3 days in the dark to thereby infect each section with the pIAH6-introduced Agrobacterium. In this case, a modified MS medium having an ammonia nitrogen/nitrate nitrogen concentration ratio of 1:3 (5 mM NH4, 15 mM NO3) was supplemented with 20 g/l sucrose and used as the EG basal medium. The sections after infection culturing were put on an EG basal agar medium (agar 8.5 g/l) supplemented with 500 mg/l ticarcillin and 1 μM or 10 μM of an auxin precursor analogue NAM, and the culturing was continued at 25° C. under light conditions of 30 to 40 μmol/m^2/s in light intensity while sub-culturing at an interval of 2 weeks using the same medium. Among these sections, the quicker ones redifferentiated adventitious buds after about 2 months of the Agrobacterium infection. Three months after the Agrobacterium infection, in order to examine expression of the GUS gene used as a model of the desired gene, the redifferentiated adventitious buds were subjected to a GUS staining test in accordance with the method of Jefferson et al. (Plant Mol. Biol. Rep., 5: 387-405 (1987)), and the degree of formation of desired gene-introduced adventitious buds was judged by examining the number of stained adventitious buds (the number of adventitious buds expressing the desired gene). An E. globulus gene introduction test was carried out in the same manner as in Example 1, except that the hypocotyl sections after the Agrobacterium infection were cultured using the EG basal agar medium (agar 8.5 g/l) supplemented with 500 mg/l ticarcillin and 0 μM, 1 μM or 10 μM NAA as auxin. An E. globulus gene introduction test was carried out in the same manner as in Example 1 or Comparative Example 1, except that a plasmid pIPT10 having only the ipt gene as the selectable marker gene was used as the vector. Also, the vector also has the GUS gene as a model of the desired gene. Structure of T-DNA region of the pIPT10 used in this case is shown in FIG. 2, and results of the gene introduction test are shown in Table 3.

[2] = test system: E. globulus hypocotyl sections; experiment: E. globulus gene introduction test, vector pIAH6 (ipt + iaaH + GUS), adventitious bud redifferentiation and GUS staining; assay type: cell-based, Eucalyptus globulus; settings: for B/A Redifferentiation ratio / C/A Gene introduction ratio / C/B Selection efficiency: section basis
Procedure: Using a plasmid pIAH6 as a vector having a GUS gene as a model of a desired gene and an ipt gene and an iaaH gene as selectable marker genes, a transformant was produced by carrying out gene introduction into Eucalyptus globulus (hereinafter referred to as “E. globulus”) by the method of the present invention. Seeds of E. globulus from Chile were sterilized by soaking in 70% ethanol for about 1 minute and then soaking with stirring in a 2% aqueous sodium hypochlorite solution for about 4 hours, washed thoroughly with sterile water, inoculated on an MS agar medium to which 0.5 mg/l zeatin had been added and stored in a refrigerator at 4° C. for 2 days to accelerate germination, and then the germination was carried out by culturing at 25° C. under light conditions of about 10 μmol/m^2/s in light intensity. One to two weeks after the inoculation of the seeds onto the germination medium, hypocotyls were collected by cutting out apical buds, cotyledons and roots of the germinated seedlings, and the hypocotyls were cut into sections of about 5 mm to be used as samples for gene introduction and subjected to the following test. A. tumefaciens EHA105 introduced with the plasmid pIAH6 in the above item I was cultured overnight in the YEB liquid medium and then diluted to OD630 =0.5 with EG basal medium, and the sections of hypocotyl prepared in the above were soaked in the cell suspension. Next, each of the sections after removing excess cell suspension was co-cultured with Agrobacterium on an agar medium (agar 8.5 g/l) prepared by adding 1.0 mg/l zeatin, 0.05 mg/l NAA and 40 mg/l acetosyringone to the EG basal medium, at 25° C. for 3 days in the dark to thereby infect each section with the pIAH6-introduced Agrobacterium. In this case, a modified MS medium having an ammonia nitrogen/nitrate nitrogen concentration ratio of 1:3 (5 mM NH4, 15 mM NO3) was supplemented with 20 g/l sucrose and used as the EG basal medium. The sections after infection culturing were put on an EG basal agar medium (agar 8.5 g/l) supplemented with 500 mg/l ticarcillin and 1 μM or 10 μM of an auxin precursor analogue NAM, and the culturing was continued at 25° C. under light conditions of 30 to 40 μmol/m^2/s in light intensity while sub-culturing at an interval of 2 weeks using the same medium. Among these sections, the quicker ones redifferentiated adventitious buds after about 2 months of the Agrobacterium infection. Three months after the Agrobacterium infection, in order to examine expression of the GUS gene used as a model of the desired gene, the redifferentiated adventitious buds were subjected to a GUS staining test in accordance with the method of Jefferson et al. (Plant Mol. Biol. Rep., 5: 387-405 (1987)), and the degree of formation of desired gene-introduced adventitious buds was judged by examining the number of stained adventitious buds (the number of adventitious buds expressing the desired gene). An E. globulus gene introduction test was carried out in the same manner as in Example 1, except that the hypocotyl sections after the Agrobacterium infection were cultured using the EG basal agar medium (agar 8.5 g/l) supplemented with 500 mg/l ticarcillin and 0 μM, 1 μM or 10 μM NAA as auxin.

[3] = NAA 1 μM in medium, 62 sections tested
[4] = NAA 10 μM in medium, 40 sections tested

O=C(O)Cc1cccc2ccccc12 [NAA, naphthaleneacetic acid]
B Adventitious bud differentiated (number of sections) ([1]; additive 1 μM in medium): 9 number of sections
C GUS + adventitious bud differentiated (number of sections) ([1]; additive 1 μM in medium): 1 number of sections
B/A Redifferentiation ratio ([1]; additive 1 μM in medium): 20.5%
C/A Gene introduction ratio ([1]; additive 1 μM in medium): 2.3%
C/B Selection efficiency ([1]; additive 1 μM in medium): 11.1%
B Adventitious bud differentiated (number of sections) ([1]; additive 10 μM in medium): 7 number of sections
C GUS + adventitious bud differentiated (number of sections) ([1]; additive 10 μM in medium): 0 number of sections
B/A Redifferentiation ratio ([1]; additive 10 μM in medium): 15.9%
C/A Gene introduction ratio ([1]; additive 10 μM in medium): 0.0%
C/B Selection efficiency ([1]; additive 10 μM in medium): 0%
B Adventitious bud differentiated (number of sections) [2, 3]: 9 number of sections
C GUS + adventitious bud differentiated (number of sections) [2, 3]: 2 number of sections
B/A Redifferentiation ratio ([2]; NAA 1 μM in medium): 14.5%
C/A Gene introduction ratio ([2]; NAA 1 μM in medium): 3.2%
C/B Selection efficiency ([2]; NAA 1 μM in medium): 22.2%
B Adventitious bud differentiated (number of sections) [2, 4]: 13 number of sections
C GUS + adventitious bud differentiated (number of sections) [2, 4]: 1 number of sections
B/A Redifferentiation ratio ([2]; NAA 10 μM in medium): 32.5%
C/A Gene introduction ratio ([2]; NAA 10 μM in medium): 2.5%
C/B Selection efficiency ([2]; NAA 10 μM in medium): 7.7%
